Results published in PubChem BioAssay (NCI).
Where “and” joins values, the source holds several entries; their conditions need not be identical. Identical values can stand only once.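 How tested: cells in 96-well plates exposed to compound for 48 hours at five concentrations. GI50: concentration for 50% inhibition of growth. At the TGI there is no net growth.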

What was measured:
Assay in all cases: DTP human tumour cell line panel, 48 h
A549 NSCLC = tested on: A549 NSCLC
CCRF-CEM leukemia = tested on: CCRF-CEM leukemia
RPMI-8226 leukemia = tested on: RPMI-8226 leukemia
RXF 393 renal = tested on: RXF 393 renal
SK-MEL-28 melanoma = tested on: SK-MEL-28 melanoma
SK-MEL-5 melanoma = tested on: SK-MEL-5 melanoma
SK-OV-3 ovarian = tested on: SK-OV-3 ovarian
U251 CNS = tested on: U251 CNS
UACC-62 melanoma = tested on: UACC-62 melanoma
OVCAR-3 ovarian = tested on: OVCAR-3 ovarian

With `CC(=O)NNc1nc(C)c(C(/C=C/c2ccc(Cl)cc2)=N/NC(=S)NN)s1` the TGI (A549 NSCLC) was > 100 µM, the TGI (CCRF-CEM leukemia) was > 100 µM and the TGI (RPMI-8226 leukemia) was > 100 µM. For the same compound, the TGI (RXF 393 renal) was > 100 µM, the TGI (SK-MEL-28 melanoma) was > 100 µM and the TGI (SK-MEL-5 melanoma) was > 100 µM. For the same compound, the TGI (SK-OV-3 ovarian) was > 100 µM, the TGI (U251 CNS) was > 100 µM and the TGI (UACC-62 melanoma) was > 100 µM.
For `COc1cc(CCC(=O)NS(=O)(=O)c2ccccc2)cc(OC)c1OC`, the TGI (A549 NSCLC) was > 100 µM, the TGI (CCRF-CEM leukemia) was > 100 µM and the TGI (OVCAR-3 ovarian) was > 100 µM. The TGI (RPMI-8226 leukemia) was > 100 µM, the TGI (RXF 393 renal) was > 100 µM and the TGI (SK-MEL-28 melanoma) was > 100 µM. For the same compound, the TGI (SK-OV-3 ovarian) was > 100 µM, the TGI (U251 CNS) was > 100 µM and the TGI (UACC-62 melanoma) was > 100 µM.
`OCCCCC#Cc1ccccc1C#Cc1cccs1` gave a GI50 (A549 NSCLC) of 17400 nM, a TGI (A549 NSCLC) of 31.1 µM and a GI50 (CCRF-CEM leukemia) of 2290 nM. It also gave a TGI (CCRF-CEM leukemia) of 11.5 µM, a GI50 (OVCAR-3 ovarian) of 15 µM and a TGI (OVCAR-3 ovarian) of 28.9 µM. The GI50 (RPMI-8226 leukemia) was 22000 nM, the TGI (RPMI-8226 leukemia) was 71 µM and the GI50 (RXF 393 renal) was 15800 nM. For the same compound, the TGI (RXF 393 renal) was 30.3 µM, the GI50 (SK-MEL-28 melanoma) was 15.8 µM and the TGI (SK-MEL-28 melanoma) was 31.1 µM. For the same compound, the GI50 (SK-MEL-5 melanoma) was 13300 nM, the TGI (SK-MEL-5 melanoma) was 26 µM and the GI50 (SK-OV-3 ovarian) was 15500 nM. It also gave a TGI (SK-OV-3 ovarian) of 30.6 µM, a GI50 (U251 CNS) of 13.9 µM and a TGI (U251 CNS) of 27 µM. The GI50 (UACC-62 melanoma) was 12900 nM and the TGI (UACC-62 melanoma) was 25.9 µM.
With `Cc1sc2c(c1C)C(c1ccc(Cl)cc1)=N[C@@H](CC(=O)Nc1ccc(O)cc1)c1nnc(C)n1-2` the GI50 (A549 NSCLC) was 2600 nM, the TGI (A549 NSCLC) was 26.8 µM and the GI50 (CCRF-CEM leukemia) was 317 nM. For the same compound, the TGI (CCRF-CEM leukemia) was 31.4 µM, the GI50 (OVCAR-3 ovarian) was 0.888 µM and the TGI (OVCAR-3 ovarian) was 18.7 µM. For the same compound, the GI50 (RPMI-8226 leukemia) was 168 nM, the TGI (RPMI-8226 leukemia) was 11.8 µM and the GI50 (RXF 393 renal) was 1790 nM. For the same compound, the TGI (RXF 393 renal) was 15.5 µM, the GI50 (SK-MEL-28 melanoma) was 5.31 µM and the TGI (SK-MEL-28 melanoma) was 26.4 µM. The GI50 (SK-MEL-5 melanoma) was 472 nM, the TGI (SK-MEL-5 melanoma) was 14.9 µM and the GI50 (SK-OV-3 ovarian) was 150 nM. The TGI (SK-OV-3 ovarian) was 15 µM, the GI50 (U251 CNS) was 3.78 µM and the TGI (U251 CNS) was 21.7 µM. For the same compound, the GI50 (UACC-62 melanoma) was 162 nM and the TGI (UACC-62 melanoma) was 18.1 µM.
For `Oc1oc(-c2ccccc2)nc1/C=C1/C=NN=N1`, the TGI (A549 NSCLC) was > 100 µM, the TGI (CCRF-CEM leukemia) was > 100 µM and the TGI (OVCAR-3 ovarian) was > 100 µM. The TGI (RPMI-8226 leukemia) was > 100 µM, the TGI (RXF 393 renal) was > 100 µM and the TGI (SK-MEL-28 melanoma) was > 100 µM. The TGI (SK-OV-3 ovarian) was > 100 µM, the TGI (U251 CNS) was > 100 µM and the TGI (UACC-62 melanoma) was > 100 µM.
`CN(C)CCN1C(=O)c2cccc3c(-c4ccc5ncn(C6CCCCC6)c5c4)ccc(c23)C1=O` showed a GI50 (A549 NSCLC) of 1120 nM, a TGI (A549 NSCLC) of 2.56 µM and a GI50 (CCRF-CEM leukemia) of 1840 nM. For the same compound, the TGI (CCRF-CEM leukemia) was 7.22 µM, the GI50 (OVCAR-3 ovarian) was 2.28 µM and the TGI (OVCAR-3 ovarian) was 8.78 µM. It also gave a GI50 (RPMI-8226 leukemia) of 1030 nM, a TGI (RPMI-8226 leukemia) of 6.1 µM and a GI50 (RXF 393 renal) of 1350 nM. For the same compound, the TGI (RXF 393 renal) was 2.96 µM, the GI50 (SK-MEL-28 melanoma) was 2.18 µM and the TGI (SK-MEL-28 melanoma) was 5.66 µM. For the same compound, the GI50 (SK-MEL-5 melanoma) was 1440 nM, the TGI (SK-MEL-5 melanoma) was 2.85 µM and the GI50 (SK-OV-3 ovarian) was 2590 nM. It also gave a TGI (SK-OV-3 ovarian) of 8.64 µM, a GI50 (U251 CNS) of 2 µM and a TGI (U251 CNS) of 11.5 µM.
In the case of `CN(Cc1ccccc1)c1nc(=[N+](C)C)ss1`, the TGI (A549 NSCLC) is reported as > 100 µM, the TGI (CCRF-CEM leukemia) is reported as > 100 µM and the TGI (RPMI-8226 leukemia) is reported as > 100 µM. For the same compound, the TGI (RXF 393 renal) was > 100 µM, the TGI (SK-MEL-28 melanoma) was > 100 µM and the TGI (SK-MEL-5 melanoma) was > 100 µM. For the same compound, the TGI (SK-OV-3 ovarian) was > 100 µM, the TGI (U251 CNS) was > 100 µM and the TGI (UACC-62 melanoma) was > 100 µM.
In the case of `Cc1cccc(NC(=O)Cc2nc3ccccc3s2)c1C`, the TGI (A549 NSCLC) is reported as > 100 µM, the TGI (CCRF-CEM leukemia) is reported as > 100 µM and the TGI (OVCAR-3 ovarian) is reported as > 100 µM. The TGI (RPMI-8226 leukemia) was > 100 µM, the TGI (RXF 393 renal) was > 100 µM and the TGI (SK-MEL-28 melanoma) was > 100 µM. For the same compound, the TGI (SK-MEL-5 melanoma) was > 100 µM, the TGI (SK-OV-3 ovarian) was > 100 µM and the TGI (UACC-62 melanoma) was > 100 µM.
`CCc1ccccc1NC(=O)C1=C(C)NC(C)=C(C(=O)Nc2ccccc2CC)C1c1ccc(NC(C)=O)cc1` was tested, and the TGI (A549 NSCLC) was > 100 µM, the TGI (CCRF-CEM leukemia) was 65.8 µM and the TGI (OVCAR-3 ovarian) was > 100 µM. It also gave a TGI (RPMI-8226 leukemia) of 48.9 µM, a TGI (RXF 393 renal) of 65 µM and a TGI (SK-MEL-28 melanoma) of 52.9 µM. The TGI (SK-MEL-5 melanoma) was > 100 µM, the TGI (SK-OV-3 ovarian) was > 100 µM and the TGI (U251 CNS) was > 100 µM.
For `O=C(O)C1=C(Cl)c2ccccc2S1(=O)=O`, the TGI (A549 NSCLC) was > 100 µM, the TGI (CCRF-CEM leukemia) was > 100 µM and the TGI (RPMI-8226 leukemia) was > 100 µM. The TGI (RXF 393 renal) was > 100 µM, the TGI (SK-MEL-28 melanoma) was > 100 µM and the TGI (SK-MEL-5 melanoma) was > 100 µM. The TGI (SK-OV-3 ovarian) was > 100 µM and the TGI (UACC-62 melanoma) was > 100 µM.
For `NCCCn1c2c(c3ccc([N+](=O)[O-])cc3c1=O)C(=O)c1cc(Cl)ccc1-2`, the GI50 (A549 NSCLC) was < 10 nM, the TGI (A549 NSCLC) was 0.116 µM and the GI50 (CCRF-CEM leukemia) was < 10 nM. The TGI (CCRF-CEM leukemia) was 0.0104 µM, the GI50 (RPMI-8226 leukemia) was < 10 nM and the TGI (RPMI-8226 leukemia) was 0.0367 µM. For the same compound, the GI50 (RXF 393 renal) was < 10 nM, the TGI (RXF 393 renal) was 0.118 µM and the GI50 (SK-MEL-28 melanoma) was 0.126 µM. For the same compound, the TGI (SK-MEL-28 melanoma) was 1.67 µM, the GI50 (SK-MEL-5 melanoma) was < 15.1 nM and the TGI (SK-MEL-5 melanoma) was 0.25 µM. For the same compound, the GI50 (SK-OV-3 ovarian) was < 10 nM, the TGI (SK-OV-3 ovarian) was 0.197 µM and the GI50 (U251 CNS) was < 0.01 µM. The TGI (U251 CNS) was 0.123 µM, the GI50 (UACC-62 melanoma) was < 10 nM and the TGI (UACC-62 melanoma) was 0.0696 µM.
In the case of `CO[C@@]12[C@H](COC(N)=O)C3=C(C(=O)C(C)=C(N)C3=O)N1C[C@@H]1N[C@@H]12`, the TGI (A549 NSCLC) is reported as 8.52 µM and 25 µM and 2.78 µM, the GI50 (CCRF-CEM leukemia) is reported as 126 nM and 62.5 nM and the TGI (CCRF-CEM leukemia) is reported as 13.2 µM and 1.96 µM and 18.6 µM. For the same compound, the GI50 (OVCAR-3 ovarian) was 5.79 µM and 3.66 µM, the TGI (OVCAR-3 ovarian) was 8.8 µM and 14.4 µM and 34.4 µM and the GI50 (RPMI-8226 leukemia) was 2030 nM and 1880 nM. The TGI (RPMI-8226 leukemia) was 19.2 µM and 14.2 µM and 15.5 µM, the GI50 (RXF 393 renal) was 1230 nM and the TGI (RXF 393 renal) was 6.36 µM and 6.07 µM and 3.77 µM. For the same compound, the GI50 (SK-MEL-28 melanoma) was 2.18 µM, the TGI (SK-MEL-28 melanoma) was 7.12 µM and 14.9 µM and the GI50 (SK-MEL-5 melanoma) was 1600 nM. For the same compound, the TGI (SK-MEL-5 melanoma) was 1.22 µM and 3.25 µM and 1.69 µM, the GI50 (SK-OV-3 ovarian) was 2410 nM and the TGI (SK-OV-3 ovarian) was 9.83 µM and 18 µM and 7.06 µM. The GI50 (UACC-62 melanoma) was 952 nM and the TGI (UACC-62 melanoma) was 2.64 µM and 7.74 µM and 2.19 µM.
`CCC[CH2][Sn]1([CH2]CCC)[O]CC([CH2][Sn]([c]2ccccc2)([c]2ccccc2)[c]2ccccc2)[O]1` (stereo not drawn) gave a GI50 (A549 NSCLC) of 16500 nM, a TGI (A549 NSCLC) of 31.4 µM and a GI50 (CCRF-CEM leukemia) of 2260 nM. The TGI (CCRF-CEM leukemia) was 20.8 µM, the GI50 (OVCAR-3 ovarian) was 14.9 µM and the TGI (OVCAR-3 ovarian) was 29.9 µM. For the same compound, the GI50 (RPMI-8226 leukemia) was 2850 nM, the TGI (RPMI-8226 leukemia) was 18.7 µM and the GI50 (RXF 393 renal) was 3210 nM. It also gave a TGI (RXF 393 renal) of 15.4 µM, a GI50 (SK-MEL-28 melanoma) of 5.95 µM and a TGI (SK-MEL-28 melanoma) of 20.2 µM. The GI50 (SK-OV-3 ovarian) was 19100 nM, the TGI (SK-OV-3 ovarian) was 33.2 µM and the GI50 (U251 CNS) was 6.5 µM. It also gave a TGI (U251 CNS) of 19.9 µM, a GI50 (UACC-62 melanoma) of 10600 nM and a TGI (UACC-62 melanoma) of 22.6 µM.
